Values quoted from earlier work, collected in US20170046504A1, “SYSTEM FOR DETERMINING A SUITABILITY OF AN ACTIVE INGREDIENT TO BE APPLIED TRANSDERMALLY OR TRANSMUCOSALLY AND CORRESPONDING METHOD” (LTS Lohmann Therapie-Systeme AG, priority 2014, published 2017).

Legend:
[1] = assumed
[2] = in vivo

## CN1CCCC1c1cccnc1 (centres unmarked) [nicotine]
[1]
  efficiency for oral administration: 20-45%
[2]
  half-life period: 1 to 6 h
